Consider 15 compounds from patent publication US10077261B2, “Imidazolin-5-one derivative useful as FASN inhibitors for the treatment of cancer” (Janssen Pharmaceutica NV, priority 2012, dated 2018).

Structures are written as SMILES.

Test [1] has as its target T1, hFASN enzyme (full length) (Homo sapiens, UniProt P49327).
T1 construct: 10 μL hFASN enzyme (full length, 300 ng, purified in house); made in house
Kind of test: Fatty Acid Synthase (FASN) inhibition scintillation proximity assay. The note with it: for inhibition at 10 µM: read-out: Human FASN % inhibition @ 10 μM, 10 μM test compound; for IC50: read-out: Human FASN pIC50 (converted). It counts as biochemical. Put shortly: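 Compounds at 0.01–30 μM were mixed with 300 ng purified full-length enzyme in 100 mM KH2PO4 pH 7.5, 1 mM DTT. Substrates ³H-acetyl-CoA and malonyl-CoA were then converted, and bead addition stopped the reaction. Signal was normalised to low and high plate controls and fitted by 4-parameter nonlinear regression.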

The test system of test [2] is A2780 ovarian cells. Kind of test: A2780 ovarian cell proliferation assay in lipid reduced medium, with palmitate (MTT). The note with it: Homo sapiens, A2780, 96 h; read-out: pIC50 A2780 Ovarian Cell, With Palmitate (converted). It counts as cell-based. Put shortly:
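Seeded cells were switched next day to lipid-reduced serum, exposed to compound and 25 μM palmitate complexed with fatty-acid-free BSA, and incubated 96 h. Proliferation was then determined by MTT absorbance at 544 nm, with a best-fit curve of signal against concentration.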

Test [3] concerns A2780 ovarian cells. Kind of test: A2780 ovarian cell proliferation assay in lipid reduced medium, without palmitate (MTT). The note with it: Homo sapiens, A2780, 96 h; read-out: pIC50 A2780 Ovarian Cell, Without Palmitate (converted). It counts as cell-based.

T1 sequence (P49327 whole entry): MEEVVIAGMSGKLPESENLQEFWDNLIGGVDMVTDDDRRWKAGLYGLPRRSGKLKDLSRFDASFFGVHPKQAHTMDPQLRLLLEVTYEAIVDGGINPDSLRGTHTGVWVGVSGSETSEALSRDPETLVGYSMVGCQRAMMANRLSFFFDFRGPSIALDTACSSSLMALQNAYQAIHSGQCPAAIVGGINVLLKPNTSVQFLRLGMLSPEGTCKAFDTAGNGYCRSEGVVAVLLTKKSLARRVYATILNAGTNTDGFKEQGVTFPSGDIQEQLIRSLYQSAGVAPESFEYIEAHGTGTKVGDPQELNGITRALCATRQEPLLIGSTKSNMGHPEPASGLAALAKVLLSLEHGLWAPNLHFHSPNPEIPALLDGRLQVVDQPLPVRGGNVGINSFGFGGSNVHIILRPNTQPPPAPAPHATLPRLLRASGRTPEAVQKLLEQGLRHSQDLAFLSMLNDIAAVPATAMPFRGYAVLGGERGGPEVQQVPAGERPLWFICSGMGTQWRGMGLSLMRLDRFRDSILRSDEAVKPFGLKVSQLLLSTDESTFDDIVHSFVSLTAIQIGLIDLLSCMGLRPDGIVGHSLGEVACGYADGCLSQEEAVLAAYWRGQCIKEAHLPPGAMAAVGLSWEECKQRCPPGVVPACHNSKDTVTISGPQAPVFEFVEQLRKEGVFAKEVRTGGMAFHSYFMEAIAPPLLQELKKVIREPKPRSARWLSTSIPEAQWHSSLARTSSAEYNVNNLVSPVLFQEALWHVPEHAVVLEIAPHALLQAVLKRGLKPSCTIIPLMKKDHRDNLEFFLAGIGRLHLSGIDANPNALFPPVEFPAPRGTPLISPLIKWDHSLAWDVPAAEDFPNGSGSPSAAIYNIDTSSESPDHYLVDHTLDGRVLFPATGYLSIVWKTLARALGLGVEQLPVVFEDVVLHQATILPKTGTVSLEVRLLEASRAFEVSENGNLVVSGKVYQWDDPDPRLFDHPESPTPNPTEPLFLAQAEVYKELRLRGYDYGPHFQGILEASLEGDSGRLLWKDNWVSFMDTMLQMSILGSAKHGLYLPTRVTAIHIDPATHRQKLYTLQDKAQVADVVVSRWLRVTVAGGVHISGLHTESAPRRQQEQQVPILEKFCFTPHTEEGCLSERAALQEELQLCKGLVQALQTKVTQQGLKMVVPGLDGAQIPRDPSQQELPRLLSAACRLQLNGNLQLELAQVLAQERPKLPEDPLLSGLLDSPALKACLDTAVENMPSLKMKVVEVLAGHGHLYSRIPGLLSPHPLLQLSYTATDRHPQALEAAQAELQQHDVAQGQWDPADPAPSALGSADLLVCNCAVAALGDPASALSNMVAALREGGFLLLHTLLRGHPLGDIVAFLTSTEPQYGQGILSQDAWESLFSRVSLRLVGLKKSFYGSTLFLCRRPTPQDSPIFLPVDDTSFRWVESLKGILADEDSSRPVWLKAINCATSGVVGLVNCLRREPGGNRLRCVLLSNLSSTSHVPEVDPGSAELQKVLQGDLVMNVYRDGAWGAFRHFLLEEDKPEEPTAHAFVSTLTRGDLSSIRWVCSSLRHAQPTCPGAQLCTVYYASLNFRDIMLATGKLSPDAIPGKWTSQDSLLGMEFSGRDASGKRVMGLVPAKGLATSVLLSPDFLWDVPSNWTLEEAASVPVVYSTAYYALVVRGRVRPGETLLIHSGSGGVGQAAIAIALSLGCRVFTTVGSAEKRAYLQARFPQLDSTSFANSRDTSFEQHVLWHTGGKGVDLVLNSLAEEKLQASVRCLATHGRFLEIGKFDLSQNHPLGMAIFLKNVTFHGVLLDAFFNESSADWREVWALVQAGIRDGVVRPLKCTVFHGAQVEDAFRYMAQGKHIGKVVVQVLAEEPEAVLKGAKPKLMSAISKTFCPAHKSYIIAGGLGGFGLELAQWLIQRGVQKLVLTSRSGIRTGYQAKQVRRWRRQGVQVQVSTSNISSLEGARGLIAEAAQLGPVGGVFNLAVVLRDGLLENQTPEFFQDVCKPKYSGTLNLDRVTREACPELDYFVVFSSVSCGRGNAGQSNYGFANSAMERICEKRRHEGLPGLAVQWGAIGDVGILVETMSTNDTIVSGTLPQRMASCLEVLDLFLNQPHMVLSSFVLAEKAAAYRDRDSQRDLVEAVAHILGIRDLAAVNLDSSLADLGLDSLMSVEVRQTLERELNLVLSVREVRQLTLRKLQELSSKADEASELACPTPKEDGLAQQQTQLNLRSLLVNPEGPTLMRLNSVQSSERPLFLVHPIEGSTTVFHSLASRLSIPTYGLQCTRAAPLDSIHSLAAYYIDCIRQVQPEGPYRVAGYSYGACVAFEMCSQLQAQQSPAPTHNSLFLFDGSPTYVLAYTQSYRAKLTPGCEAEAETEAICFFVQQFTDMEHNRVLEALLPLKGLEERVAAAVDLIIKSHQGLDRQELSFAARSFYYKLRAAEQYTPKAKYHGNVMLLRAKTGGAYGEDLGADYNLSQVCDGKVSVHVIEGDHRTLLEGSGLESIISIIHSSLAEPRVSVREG

In the case of `O=C(C1CC1)N1CC(CN2C(=O)C3(CC3)N=C2c2ccc(-c3cccc(S(=O)(=O)C4CC4)c3)cc2F)C1` [compound 651, 6-{[1-(Cyclopropylcarbonyl)azetidin-3-yl]methyl}-5-[3′-(cyclopropylsulfonyl)-3-fluorobiphenyl-4-yl]-4,6-diazaspiro[2.4]hept-4-en-7-one], in test [1], the inhibition at 10 µM amounted to 77%. Further, the IC50 in test [1] was 3.09 µM; in the test on A2780 ovarian cells [2], > 10 µM; with A2780 ovarian cells [3], 2.75 µM.

Regarding `Cn1c(-c2ccc(C3=NC4(CC4)C(=O)N3CC3CN(C(=O)C4CC4)C3)c(F)c2)nc2ccc(F)cc21` [compound 653, 6-{[1-(Cyclopropylcarbonyl)azetidin-3-yl]methyl}-5-[2-fluoro-4-(6-fluoro-1-methyl-1H-benzimidazol-2-yl)phenyl]-4,6-diazaspiro[2.4]hept-4-en-7-one], in test [1], the inhibition at 10 µM was found to be 71%. Besides, the IC50 in test [1] is 3.02 µM; with A2780 ovarian cells [2], > 10 µM; with A2780 ovarian cells [3] it was 4.17 µM.

Turning to `Cc1nc2ccc(-c3ccc(C4=NC5(CC5)C(=O)N4CC4CN(C(=O)C5CC5)C4)c(F)c3)cc2n1C` [compound 654, 6-{[1-(Cyclopropylcarbonyl)azetidin-3-yl]methyl}-5-[4-(1,2-dimethyl-1H-benzimidazol-6-yl)-2-fluorophenyl]-4,6-diazaspiro[2.4]hept-4-en-7-one], the inhibition at 10 µM in test [1] was determined as 83%. Also, the IC50 was 1.15 µM in test [1], > 10 µM in the test with A2780 ovarian cells [2] and 2.19 µM in the test with A2780 ovarian cells [3].

`COC(=O)N1CC[C@@H](CN2C(=O)C3(CCOCC3)N=C2c2ccc(-c3ccc4cccnc4c3)cc2)C1` [compound 664, Methyl (3S)-3-{[4-oxo-2-(4-quinolin-7-ylphenyl)-8-oxa-1,3-diazaspiro[4.5]dec-1-en-3-yl]methyl}pyrrolidine-1-carboxylate]: in test [1], the inhibition at 10 µM amounted to 87%. Further, the results for the IC50 (in test [1]; in the test on A2780 ovarian cells [2]; in the test on A2780 ovarian cells [3]) were 3.72 µM, > 10 µM and ~2.88 µM, respectively.

`COC(=O)N1CC[C@@H](CN2C(=O)C3(CCOC3)N=C2c2ccc(-c3ccc4cccnc4c3)cc2)C1` (stereo partly drawn) [compound 683, Methyl (3S)-{[4-oxo-2-(4-quinolin-7-ylphenyl)-7-oxa-1,3-diazaspiro[4.4]non-1-en-3-yl]methyl}pyrrolidin-1-carboxylate]: the inhibition at 10 µM in test [1] worked out at 63%. Further, the IC50 in test [1] is 4.17 µM; in the test on A2780 ovarian cells [2], > 10 µM; with A2780 ovarian cells [3], > 10 µM.

Turning to `Cc1cc(-c2cccc(S(C)(=O)=O)c2)ccc1C1=NC2(CC2)C(=O)N1CC1CN(C(=O)C2CC2)C1` [compound 775, 6-((1-(cyclopropanecarbonyl)azetidin-3-yl)methyl)-5-(3-methyl-3′-(methylsulfonyl)-[1,1′-biphenyl]-4-yl)-4,6-diazaspiro[2.4]hept-4-en-7-one], the inhibition at 10 µM in test [1] is 34%. Further, the IC50 (in test [1]; in the test on A2780 ovarian cells [2]; in the test on A2780 ovarian cells [3]) was > 10 µM throughout.

As to `Cc1cc(-c2cccc(S(=O)(=O)C(C)C)c2)ccc1C1=NC2(CC2)C(=O)N1CC1CN(C(=O)C2CC2)C1` [compound 776, 6-((1-(cyclopropanecarbonyl)azetidin-3-yl)methyl)-5-(3′-(isopropylsulfonyl)-3-methyl-[1,1′-biphenyl]-4-yl)-4,6-diazaspiro[2.4]hept-4-en-7-one], the inhibition at 10 µM in test [1] amounted to 25%. For the same compound, the IC50 (in test [1]; in the test on A2780 ovarian cells [2]; in the test with A2780 ovarian cells [3]) was > 10 µM each time.

Turning to `CS(=O)(=O)c1cccc(-c2ccc(C3=NC4(CC4)C(=O)N3CC3CN(C(=O)C4CC4)C3)c(F)c2)c1` [compound 777, 6-((1-(cyclopropanecarbonyl)azetidin-3-yl)methyl)-5-(3-fluoro-3′-(methylsulfonyl)-[1,1′-biphenyl]-4-yl)-4,6-diazaspiro[2.4]hept-4-en-7-one], the inhibition at 10 µM in test [1] came out at 34%. Also, the values for the IC50 (in test [1]; with A2780 ovarian cells [2]; in the test with A2780 ovarian cells [3]) were > 10 µM, > 10 µM and 9.55 µM, respectively.

As to `CC(C)c1ccc(-c2ccc(C3=NC4(CC4)C(=O)N3CC3CN(C(=O)C4CC4)C3)cc2)cn1` [compound 784, 6-((1-(cyclopropanecarbonyl)azetidin-3-yl)methyl)-5-(4-(6-isopropylpyridin-3-yl)phenyl)-4,6-diazaspiro[2.4]hept-4-en-7-one], in test [1], the inhibition at 10 µM is 14%. Besides, the IC50 in test [1] was > 10 µM; in the test with A2780 ovarian cells [2], > 10 µM; in the test on A2780 ovarian cells [3], 5.89 µM.

As for `Cc1cc(-c2ccc(-c3ccnn3CC(C)C)cc2)ccc1C1=NC2(CC2)C(=O)N1CC1CN(C(=O)C2(C)CC2)C1` [compound 785], the inhibition at 10 µM in test [1] is 24%. For the same compound, the values for the IC50 (in test [1]; in the test with A2780 ovarian cells [2]; with A2780 ovarian cells [3]) were > 10 µM, ~6.17 µM and 3.89 µM, respectively.

`Cc1cc(-c2ccc(-c3ccnn3CC3CC3)cc2)ccc1C1=NC2(CC2)C(=O)N1CC1CN(C(=O)C2(C)CC2)C1` [compound 786, 5-(4′-(1-(cyclopropylmethyl)-1H-pyrazol-5-yl)-3-methyl-[1,1′-biphenyl]-4-yl)-6-((1-(1-methylcyclopeopanecarbonyl)azetidin-3-yl)methyl)-4,6-diazaspiro[2.4]hept-4-en-7-one]: in test [1], the inhibition at 10 µM was determined as 31%. The IC50 in test [1] is > 10 µM; in the test on A2780 ovarian cells [2], 5.89 µM; in the test with A2780 ovarian cells [3] it was 6.76 µM.

Consider `Cc1cc(-c2nc3cc(Br)ccc3cc2C)ccc1C1=NC2(CC2)C(=O)N1CC1CN(C(=O)C2(C)CC2)C1` [compound 787, 5-(4-(7-bromo-3-methylquinolin-2-yl)-2-methylphenyl)-6-((1-(1-methylcyclopropanecarbonyl)azetidin-3-yl)methyl)-4,6-diazaspiro[2.4]hept-4-en-7-one], for which the inhibition at 10 µM in test [1] worked out at 38%. For the same compound, the figures for the IC50 (in test [1]; in the test on A2780 ovarian cells [2]; in the test with A2780 ovarian cells [3]) were > 10 µM, > 10 µM and 9.33 µM, respectively.

With `O=C(C1CC1)N1CC(CN2C(=O)C3(CC3)N=C2c2ccc(-c3ccc4c(cnn4C4COC4)c3)cc2)C1` [compound 788, 6-((1-(cyclopropanecarbonyl)azetidin-3-yl)methyl)-5-(4-(1-(oxetan-3-yl)-1H-indazol-5-yl)phenyl)-4,6-diazaspiro[2.4]hept-4-en-7-one], the inhibition at 10 µM in test [1] turned out to be 14%. Besides, the IC50 (in test [1]; in the test on A2780 ovarian cells [2]; in the test on A2780 ovarian cells [3]) was > 10 µM in each case.

With `O=C(C1CC1)N1CC(CN2C(=O)C3(CC3)N=C2c2ccc(-c3ccc4c(cnn4C4COC4)c3)cc2F)C1` [compound 789, 6-((1-(cyclopropanecarbonyl)azetidin-3-yl)methyl)-5-(2-fluoro-4-(1-(oxetan-3-yl)-1H-indazol-5-yl)phenyl)-4,6-diazaspiro[2.4]hept-4-en-7-one], the inhibition at 10 µM in test [1] turned out to be 26%. For the same compound, the IC50 (in test [1]; with A2780 ovarian cells [2]; in the test on A2780 ovarian cells [3]) was > 10 µM in each case.

Turning to `Cc1ccc2c(-c3ccc(C4=NC5(CC5)C(=O)N4CC4CN(C(=O)C5CC5)C4)cc3)cccc2n1` [compound 790, 6-((1-(cyclopropanecarbonyl)azetidin-3-yl)methyl)-5-(4-(2-methy7lquinolin-5-yl)phenyl)-4,6-diazaspiro[2.4]jept-4-en-7-one], the inhibition at 10 µM in test [1] turned out to be 47%. For the same compound, the IC50 (in test [1]; with A2780 ovarian cells [2]; in the test on A2780 ovarian cells [3]) was > 10 µM each time.
